# Assay results reported in patent publication US4440943A, “Phenoxiodinin-5-ium antimicrobial compounds” (The Dow Chemical Company, priority 1982, dated 1984).
# Structures can show the parent of a compound that is named as a salt. Where two headings read alike, the source gives them in different places.
# Experiments:
# Format in all cases: cell-based
# Streptococcus mutans [1] = assay: Acid inhibition in Streptococcus mutans (Trypticase-yeast medium with sucrose, NaOH titration); settings: S. mutans, 48 hours at 37° C.; for minimal effective concentration: Streptococcus mutans, 48 h, read-out: Acid Inhibition (minimum concentration which prevented acid formation)
# Protocol: In still another operation, the acid inhibiting property of these compounds was tested against the known acid producing organism, Streptococcus mutans. Test tubes containing Trypticase-yeast medium with sucrose were inoculated with S. mutans and incubated for 48 hours at 37° C. The tubes were then titrated with 0.1 N sodium hydroxide.
# Salmonella typhosa = assay: Agar dilution MIC vs Salmonella typhosa (trypticase soy agar); settings: for Minimum inhibitory concentration, St: Salmonella typhosa, first screened at 500 ppm; for MIC: Salmonella enterica, TYPHOSA, read-out: Minimum inhibitory concentration, St, Salmonella typhosa, first screened at 500 ppm
# Protocol: (§1) A tube containing 30 ml of trypticase soy agar was melted and warmed to 45° C. The test compound was added to the tube at a concentration of 0.05% (500 ppm). The mixture was stirred and poured into plates to harden. When hardened, the plates were inoculated with various aerobic and anaerobic organisms. The aerobic plates were incubated at 37° C. for 24 hours and then read for bacterial growth. The same plates were again incubated at 30° C. for an additional 48 hours at which point they were checked for yeast and fungal growth. The anaerobic plates were incubated at 37° C. in an anaerobic chamber and read at 48 hours.
# (§2) After the initial readings, compounds showing sufficient activity were re-tested at various concentrations to determine the minimum inhibitory concentration (MIC) of the compounds of the invention against various bacteria and fungi.
# Proteus mirabilis = assay: Agar dilution MIC vs Proteus mirabilis (trypticase soy agar); settings: first screened at 500 ppm
# Protocol: as §1, §2
# [2] = system: Streptococcus mutans (ATCC 10449); assay: MIC and MBC vs Streptococcus mutans, Todd Hewitt broth, standard dilution; settings: for MBC: read-out: MBC (minimum bactericidal concentration)
# Protocol: In another procedure, the minimum inhibitory concentration (MIC) and minimum bactericidal concentration (MBC) were determined in ppm for various compounds of the invention against the bacteria, Streptococcus mutans (ATCC 10449). The testing was performed using Todd Hewitt broth and standard dilution techniques.
# Aspergillus niger = assay: Agar dilution MIC vs Aspergillus niger (trypticase soy agar); settings: first screened at 500 ppm
# Protocol: as §1, §2
# Staphylococcus aureus = assay: Agar dilution MIC vs Staphylococcus aureus (trypticase soy agar); settings: first screened at 500 ppm; for MIC: read-out: Minimum inhibitory concentration, Sa
# Protocol: as §1, §2
# Candida pelliculosa = assay: Agar dilution MIC vs Candida pelliculosa (trypticase soy agar); settings: first screened at 500 ppm
# Protocol: as §1, §2
# Escherichia coli = assay: Agar dilution MIC vs Escherichia coli (trypticase soy agar); settings: first screened at 500 ppm; for MIC: read-out: Minimum inhibitory concentration, Ec
# Protocol: as §1, §2
# Streptococcus mutans [3] = assay: Agar dilution MIC vs Streptococcus mutans (trypticase soy agar); settings: first screened at 500 ppm; for MIC: read-out: Minimum inhibitory concentration, Sm
# Protocol: as §1, §2
# Bacillus subtilis = assay: Agar dilution MIC vs Bacillus subtilis (trypticase soy agar); settings: first screened at 500 ppm; for MIC: read-out: Minimum inhibitory concentration, Bs
# Protocol: as §1, §2
# [4] = system: Trichophyton mentagrophytes; assay: Agar dilution MIC vs Trichophyton mentagrophytes (trypticase soy agar); settings: first screened at 500 ppm
# Protocol: as §1, §2
# Aspergillus fumigatus = assay: Agar dilution MIC vs Aspergillus fumigatus (trypticase soy agar); settings: first screened at 500 ppm
# Protocol: as §1, §2
# [5] = Streptococcus mutans ATCC 10449, Todd Hewitt broth, monohydrate
# [6] = Streptococcus mutans ATCC 10449, Todd Hewitt broth
# [7] = Streptococcus mutans, ATCC10449, Streptococcus mutans ATCC 10449, Todd Hewitt broth
# [8] = Streptococcus mutans, ATCC10449, Streptococcus mutans ATCC 10449, Todd Hewitt broth, read-out: MIC
smiles,measurement,setting,value
"COC(=O)c1ccc2c(c1)[I+]c1cc(C(=O)O)ccc1O2 [3(b), 3-carboxy-7-(methoxycarbonyl)-phenoxiodinin-5-ium bromide monohydrate]",Acid Inhibition (minimum concentration which prevented acid formation),Streptococcus mutans [1],1.0 ppm
same,"Minimum inhibitory concentration, St",Salmonella typhosa; monohydrate,5 PPM
same,"Minimum inhibitory concentration, Pm",Proteus mirabilis; monohydrate,5 PPM
same,MBC (minimum bactericidal concentration),[2]; [5],1.0 ppm
same,MIC,[2]; [5],2.0 ppm
same,"Minimum inhibitory concentration, An",Aspergillus niger,500 PPM
same,"Minimum inhibitory concentration, Sa",Staphylococcus aureus; monohydrate,1.0 PPM
same,"Minimum inhibitory concentration, Cp",Candida pelliculosa,500 PPM
same,"Minimum inhibitory concentration, Ec",Escherichia coli; monohydrate,5 PPM
same,"Minimum inhibitory concentration, Sm",Streptococcus mutans [3]; monohydrate,10 PPM
same,"Minimum inhibitory concentration, Bs",Bacillus subtilis; monohydrate,0.5 PPM
same,"Minimum inhibitory concentration, Tm",[4]; monohydrate,100 PPM
same,"Minimum inhibitory concentration, Af",Aspergillus fumigatus; monohydrate,100 PPM
COC(=O)c1ccc2c(c1)[I+]c1cc(C(=O)O)ccc1O2 [3(c)],Acid Inhibition (minimum concentration which prevented acid formation),Streptococcus mutans [1],1.0 ppm
same,"Minimum inhibitory concentration, St",Salmonella typhosa,5 PPM
same,"Minimum inhibitory concentration, Pm",Proteus mirabilis,5 PPM
same,MBC (minimum bactericidal concentration),[2]; [6],2.0 ppm
same,MIC,[2]; [6],1.0 ppm
same,"Minimum inhibitory concentration, An",Aspergillus niger,500 PPM
same,"Minimum inhibitory concentration, Sa",Staphylococcus aureus,1.0 PPM
same,"Minimum inhibitory concentration, Cp",Candida pelliculosa,500 PPM
same,"Minimum inhibitory concentration, Ec",Escherichia coli,5 PPM
same,"Minimum inhibitory concentration, Sm",Streptococcus mutans [3],500 PPM
same,"Minimum inhibitory concentration, Bs",Bacillus subtilis,0.5 PPM
same,"Minimum inhibitory concentration, Tm",[4],100 PPM
same,"Minimum inhibitory concentration, Af",Aspergillus fumigatus,100 PPM
"CN1CCN(S(=O)(=O)c2ccc3c(c2)[I+]c2cc(S(=O)(=O)N4CCN(C)CC4)ccc2O3)CC1 [4(a), 3,7-bis((4-Methyl-1-piperazinyl)sulfonyl)phenoxiodinin-5-ium bromide, hydrobromide]",MIC,Salmonella typhosa,500 µg/mL
same,MBC,[2]; [7],≥ 63 µg/mL
same,MIC,[2]; [8],≥ 63 µg/mL
same,MIC,Staphylococcus aureus,50 µg/mL
same,MIC,Escherichia coli,500 µg/mL
same,MIC,Bacillus subtilis,100 µg/mL
O=C(O)c1ccc2c(c1)[I+]c1cc(C(=O)O)ccc1O2 [6(a)],minimal effective concentration,Streptococcus mutans [1],3.9 µg/mL
same,MIC,Salmonella typhosa,10 µg/mL
same,MIC,"Proteus mirabilis; read-out: Minimum inhibitory concentration, Pm",50 µg/mL
same,MBC,[2]; [7],3.9 µg/mL
same,MIC,[2]; [8],3.9 µg/mL
same,MIC,Staphylococcus aureus,1 µg/mL
same,MIC,Escherichia coli,5 µg/mL
same,MIC,Streptococcus mutans [3],500 µg/mL
same,MIC,Bacillus subtilis,0.5 µg/mL
"CNS(=O)(=O)c1ccc2c(c1)[I+]c1cc(S(=O)(=O)NC)ccc1O2 [7(a), 3,7-Bis(methylaminosulfonyl)phenoxiodinin-5-ium bromide hemihydrate]",MIC,Staphylococcus aureus,500 µg/mL
"CNS(=O)(=O)c1ccc2c(c1)[I+]c1cc(S(=O)(=O)NC)ccc1O2 [7(b), 3,7-Bis(methylaminosulfonyl)phenoxiodinin-5-ium chloride]",MIC,Salmonella typhosa,500 µg/mL
same,MIC,"Aspergillus niger; read-out: Minimum inhibitory concentration, An",500 µg/mL
same,MIC,Escherichia coli,500 µg/mL
same,MIC,Streptococcus mutans [3],500 µg/mL
"O=S(=O)(c1ccc2c(c1)[I+]c1cc(S(=O)(=O)N3CCOCC3)ccc1O2)N1CCOCC1 [8(a), 3,7-Bis(4-morpholinylsulfonyl)phenoxiodinin-5-ium sulfate hydrate]",minimal effective concentration,Streptococcus mutans [1],8 µg/mL
same,MBC,[2]; [7],> 125 µg/mL
same,MIC,[2]; [8],62.5 µg/mL
"CN(C)S(=O)(=O)c1ccc2c(c1)[I+]c1cc(S(=O)(=O)N(C)C)ccc1O2 [9(a), 3,7-Bis(dimethylaminosulfonyl)phenoxiodinin-5-ium bromide]",Acid Inhibition (minimum concentration which prevented acid formation),Streptococcus mutans [1],0.2 ppm
same,MBC,[2]; [7],> 125 µg/mL
same,MIC,[2]; [8],> 125 µg/mL
same,MIC,Staphylococcus aureus,500 µg/mL
same,MIC,Bacillus subtilis,500 µg/mL
"CN(C)S(=O)(=O)c1ccc2c(c1)[I+]c1cc(S(=O)(=O)N(C)C)ccc1O2 [9(b), 3,7-Bis(dimethylaminosulfonyl)phenoxidinin-5-ium chloride]",Acid Inhibition (minimum concentration which prevented acid formation),Streptococcus mutans [1],0.03 ppm
same,MBC (minimum bactericidal concentration),[2]; [6],> 125 ppm
same,MIC,[2]; [6],> 125 ppm
same,"Minimum inhibitory concentration, Sa",Staphylococcus aureus,500 PPM
same,"Minimum inhibitory concentration, Bs",Bacillus subtilis,500 PPM
